Patent US20240299285A1, “PERSONAL CARE COMPOSITION” (The Procter & Gamble Company, priority 2023, published 2024)

Assay: Solubility Method (cooling/heating cycles, % transmittance, visual precipitate check)
Type: physicochemical
Conditions: SLT:SMLT 10.5:1, co-surfactant 1 % or 4 %, pH 5.2
Description: This method can be used to determine the solubility characteristics of a material (e.g., an acyl taurate) in a composition. The method uses heating and cooling cycles to simulate environmental conditions commonly experienced by a personal care product and accelerate the processes that can lead to product instability.
The test composition (e.g., an aqueous surfactant composition consisting of an acyl taurate surfactant and an N-alkyl acyl taurate surfactant and/or a co-surfactant, and/or a cationic polymer and water) is placed in a closed container to prevent evaporation and heated at 40° C. for a minimum of 30 minutes or until the composition is visually clear & free of precipitates. One mL of the test solution is added to a Crystal-16 vial, closed with a basic cap and placed into a Technobis Crystallization Systems Crystal16® Model 2.2 or equivalent. The % transmittance readings are set to record 1 measurement every 300 seconds. The vials are cooled to 5° C. at a rate of 0.25° C./min and held at 5° C. for 8 hours (cooling cycle). The vials are then heated to 20° C. at a rate of 0.25° C./min and held at 20° C. for 8 hours (heating cycle). […] When the final % T recorded at the end of the heating cycle is greater than or equal to 90% and no precipitate is observed the sample is considered soluble.

Row | Substance | effect of co-surfactant on acyl taurate (SLT) solubility
1 | cocamidopropyl hydroxysultaine [CAPHS] | did not provide the desired solubility
2 | sodium lauroamphoacetate | did not provide the desired solubility
